In ChEMBL document CHEMBL3217559, “Monocyte and macrophage selective anti-inflammatory kinase inhibitors” (Medchemcomm, 2012):

How the values were obtained:
THP-1 = assay: Inhibition of LPS-induced TNFalpha production in human THP1 cells; type: functional, cell-based
Blood = assay: Inhibition of LPS-induced TNFalpha production in human whole blood; type: functional, tissue-based
MAP kinase p38 [1] = target: T1, MAP kinase p38 (Homo sapiens, UniProt O15264+Q15759+Q16539+P53778); assay: Inhibition of p38 MAP kinase-mediated MAPKAPK2 phosphorylation in human U937 cells after 4 hrs by chemiluminescence assay; type: cell-based; conditions: u-937
[2] = target: Mitogen-activated protein kinase 14 (Homo sapiens, UniProt Q16539); assay: Inhibition of p38 MAP kinase alpha (unknown origin) after 1 hr by Z'-lyte assay
MAP kinase p38 [3] = target: T1, MAP kinase p38; assay: Inhibition of p38 MAP kinase-mediated MAPKAPK2 phosphorylation in human Hut78 cells after 4 hrs by chemiluminescence assay; type: cell-based
Liver carboxylesterase 1 [4] = target: T2, Liver carboxylesterase 1 (Homo sapiens, UniProt P23141); assay: Drug metabolism in intact human U937 cells assessed as human CE1-mediated N-[2-(4-{6-Amino-5-[(2,4-difluorophenyl)carbonyl]-2-oxopyridin-1(2H)-yl}-3,5 difluorophenyl)ethyl]-L-leucine formation per million cells at 2.5 uM after 6 hrs by LC/MS/MS analysis; type: ADME, cell-based; conditions: u-937, 6 h
T2 sequence (P23141 whole entry): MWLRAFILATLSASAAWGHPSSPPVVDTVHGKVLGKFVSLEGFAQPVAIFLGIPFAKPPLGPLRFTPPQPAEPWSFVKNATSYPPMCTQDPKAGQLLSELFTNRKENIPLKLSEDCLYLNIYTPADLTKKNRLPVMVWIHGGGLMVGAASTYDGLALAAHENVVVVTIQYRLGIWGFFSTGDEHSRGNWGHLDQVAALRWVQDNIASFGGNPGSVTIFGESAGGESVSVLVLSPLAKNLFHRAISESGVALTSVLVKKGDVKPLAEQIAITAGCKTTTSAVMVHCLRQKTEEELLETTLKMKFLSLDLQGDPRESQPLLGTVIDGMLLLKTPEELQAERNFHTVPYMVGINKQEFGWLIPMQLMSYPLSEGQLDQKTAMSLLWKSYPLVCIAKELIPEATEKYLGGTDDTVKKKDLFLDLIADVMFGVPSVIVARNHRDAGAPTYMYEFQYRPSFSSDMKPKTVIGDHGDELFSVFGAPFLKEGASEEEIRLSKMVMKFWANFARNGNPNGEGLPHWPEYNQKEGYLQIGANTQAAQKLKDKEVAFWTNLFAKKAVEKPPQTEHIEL

HuT78 [5] = assay: Drug metabolism in human HUT78 cell lysate assessed as N-[2-(4-{6-Amino-5-[(2,4-difluorophenyl)carbonyl]-2-oxopyridin-1(2H)-yl}-3,5 difluorophenyl)ethyl]-L-leucine formation at 2.5 uM after 10 to 80 mins by LC/MS/MS analysis; type: ADME, cell-based; conditions: hut78, 2.5 µM
HuT78 [6] = assay: Drug metabolism in intact human HUT78 cells assessed as N-[2-(4-{6-Amino-5-[(2,4-difluorophenyl)carbonyl]-2-oxopyridin-1(2H)-yl}-3,5 difluorophenyl)ethyl]-L-leucine formation per million cells at 2.5 uM after 6 hrs by LC/MS/MS analysis; type: ADME, cell-based; conditions: hut78, 6 h
Liver carboxylesterase 1 [7] = target: T2, Liver carboxylesterase 1; assay: Drug metabolism in human U937 cell lysate assessed as human CE1-mediated N-[2-(4-{6-Amino-5-[(2,4-difluorophenyl)carbonyl]-2-oxopyridin-1(2H)-yl}-3,5 difluorophenyl)ethyl]-L-leucine formation at 2.5 uM after 10 to 80 mins by LC/MS/MS analysis; type: ADME, cell-based; conditions: u-937, 2.5 µM
HuT78 [8] = assay: Drug metabolism in human HUT78 cell lysate assessed as 5-(4-{6-Amino-5-[(2,4-difluorophenyl)carbonyl]-2-oxopyridiny1(2H)-yl}-3,5-difluorophenoxy)-L-norvaline formation at 2.5 uM after 10 to 80 mins by LC/MS/MS analysis; type: ADME, cell-based; conditions: hut78, 2.5 µM
Liver carboxylesterase 1 [9] = target: T2, Liver carboxylesterase 1; assay: Drug metabolism in human U937 cell lysate assessed as human CE1-mediated 5-(4-{6-Amino-5-[(2,4-difluorophenyl)carbonyl]-2-oxopyridiny1(2H)-yl}-3,5-difluorophenoxy)-L-norvaline formation at 2.5 uM after 10 to 80 mins by LC/MS/MS analysis; type: ADME, cell-based; conditions: u-937, 2.5 µM
HuT78 [10] = assay: Drug metabolism in intact human HUT78 cells assessed as 5-(4-{6-Amino-5-[(2,4-difluorophenyl)carbonyl]-2-oxopyridiny1(2H)-yl}-3,5-difluorophenoxy)-L-norvaline formation per million cells at 2.5 uM after 6 hrs by LC/MS/MS analysis; type: ADME, cell-based; conditions: hut78, 6 h
Liver carboxylesterase 1 [11] = target: T2, Liver carboxylesterase 1; assay: Drug metabolism in intact human U937 cells assessed as human CE1-mediated 5-(4-{6-Amino-5-[(2,4-difluorophenyl)carbonyl]-2-oxopyridiny1(2H)-yl}-3,5-difluorophenoxy)-L-norvaline formation per million cells at 2.5 uM after 6 hrs by LC/MS/MS analysis; type: ADME, cell-based; conditions: u-937, 6 h

Sequence of Mitogen-activated protein kinase 14 (Q16539 whole entry): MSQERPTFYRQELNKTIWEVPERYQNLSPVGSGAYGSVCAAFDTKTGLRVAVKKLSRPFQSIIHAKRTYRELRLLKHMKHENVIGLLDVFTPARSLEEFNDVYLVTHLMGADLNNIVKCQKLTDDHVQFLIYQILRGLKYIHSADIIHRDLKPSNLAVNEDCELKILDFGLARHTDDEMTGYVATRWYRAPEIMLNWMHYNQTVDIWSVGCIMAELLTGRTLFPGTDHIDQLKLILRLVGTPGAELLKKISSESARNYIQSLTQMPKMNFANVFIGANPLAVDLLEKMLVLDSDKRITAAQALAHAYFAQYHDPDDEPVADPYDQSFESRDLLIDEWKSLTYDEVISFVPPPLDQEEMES

Row | SMILES | IC50 (THP-1) [nM] | IC50 (Blood) [nM] | IC50 (MAP kinase p38 [1]) [nM] | IC50 [2] [nM] | IC50 (MAP kinase p38 [3]) [nM] | Drug metabolism (Liver carboxylesterase 1 [4]) [ng] | Drug metabolism (HuT78 [5]) [pg/mL/min] | Drug metabolism (HuT78 [6]) [ng] | Drug metabolism (Liver carboxylesterase 1 [7]) [pg/mL/min] | Drug metabolism (HuT78 [8]) [pg/mL/min] | Drug metabolism (Liver carboxylesterase 1 [9]) [pg/mL/min] | Drug metabolism (HuT78 [10]) [ng] | Drug metabolism (Liver carboxylesterase 1 [11]) [ng]
1 | Nc1c(C(=O)c2ccc(F)cc2F)ccc(=O)n1-c1c(F)cccc1F | 1.5 | 182 | 10 | 1.86 | 10 | – | – | – | – | – | – | – | –
2 | CC(C)C[C@H](NCCc1cc(F)c(-n2c(N)c(C(=O)c3ccc(F)cc3F)ccc2=O)c(F)c1)C(=O)O | – | – | – | 1.2 | – | – | – | – | – | – | – | – | –
3 | Nc1c(C(=O)c2ccc(F)cc2F)ccc(=O)n1-c1c(F)cc(OCCC[C@H](N)C(=O)O)cc1F | – | – | – | 1 | – | – | – | – | – | – | – | – | –

Next, values leading:

Row | IC50 (THP-1) [nM] | IC50 (Blood) [nM] | IC50 (MAP kinase p38 [1]) [nM] | IC50 [2] [nM] | IC50 (MAP kinase p38 [3]) [nM] | Drug metabolism (Liver carboxylesterase 1 [4]) [ng] | Drug metabolism (HuT78 [5]) [pg/mL/min] | Drug metabolism (HuT78 [6]) [ng] | Drug metabolism (Liver carboxylesterase 1 [7]) [pg/mL/min] | Drug metabolism (HuT78 [8]) [pg/mL/min] | Drug metabolism (Liver carboxylesterase 1 [9]) [pg/mL/min] | Drug metabolism (HuT78 [10]) [ng] | Drug metabolism (Liver carboxylesterase 1 [11]) [ng] | SMILES
4 | 0.74 | 57.5 | 0.65 | 273 | 73 | 606 | < 20 | 0.5 | 3036 | – | – | – | – | CC(C)C[C@H](NCCc1cc(F)c(-n2c(N)c(C(=O)c3ccc(F)cc3F)ccc2=O)c(F)c1)C(=O)OC1CCCC1
5 | 1.4 | 28.8 | 1 | 6.5 | 1 | – | – | – | – | 14326 | 10613 | 727 | 1407 | Nc1c(C(=O)c2ccc(F)cc2F)ccc(=O)n1-c1c(F)cc(OCCC[C@H](N)C(=O)OC2CCCC2)cc1F
